Source: patent US6451738B1, “Substituted thienyl(Amino)-sulphonyl(thio)ureas as herbicides” (Bayer Aktiengesellschaft, priority 1996, dated 2002)

Tests used:
[1] = tested on: weeds; assay: Post-emergence Test; format: in vivo; details: in words
Description: (§1) Solvent: 5 parts by weight of acetone
(§2) Emulsifier: 1 part by weight of alkylaryl polyglycol ether
(§3) To produce a suitable preparation of active compound, 1 part by weight of active compound is mixed with the stated amount of solvent, the stated amount of emulsifier is added and the concentrate is diluted with water to the desired concentration.
(§4) Test plants which have a height of 5-15 cm are sprayed with the preparation of active compound in such a way as to apply the particular amounts of active compound desired per unit area. The concentration of the spray liquor is chosen so that the particular amounts of active compound desired are applied in 1000 l of water/ha.
(§5) After three weeks, the degree of damage to the plants is rated in % damage in comparison to the development of the untreated control.
(§6) 0%=no effect (like untreated control)

[2] = tested on: Xanthium; assay: Post-emergence Test/Greenhouse; format: in vivo; details: 60 g of ai./ha, after three weeks, 0%=no effect, 100%=total destruction
Description: as §1, §2, §3, §4, §5, §6

[3] = tested on: Abutilon; assay: Post-emergence Test/Greenhouse; format: in vivo; details: 60 g of ai./ha, after three weeks, 0%=no effect, 100%=total destruction
Description: as §1, §2, §3, §4, §5, §6

[4] = tested on: Matricaria; assay: Post-emergence Test/Greenhouse; format: in vivo; details: 60 g of ai./ha, after three weeks, 0%=no effect, 100%=total destruction
Description: as §1, §2, §3, §4, §5, §6

[5] = tested on: Amaranthus; assay: Post-emergence Test/Greenhouse; format: in vivo; details: 504 h, after three weeks, 0%=no effect, 100%=total destruction, read-out: degree of damage, Amaranthus; for pest or weed control at 60 g/ha: 60 g of ai./ha
Description: as §1, §2, §3, §4, §5, §6

[6] = tested on: Chenopodium; assay: Post-emergence Test/Greenhouse; format: in vivo; details: 60 g of ai./ha, after three weeks, 0%=no effect, 100%=total destruction
Description: as §1, §2, §3, §4, §5, §6

[7] = tested on: weeds; assay: Pre-emergence Test; format: in vivo; details: in words
Description: as §1, §2, §3
(§7) Seeds of the test plants are sown in normal soil. After about 24 hours, the soil is sprayed with the preparation of active compound in such a way as to apply the particular amounts of active compound desired per unit area. The concentration of the spray liquor is chosen so that the particular amounts of active compound desired are applied in 1000 l of water/ha.
(§8) After three weeks, the degree of damage to the plants is rated in % damage in comparison with the development of the untreated control.
as §6

[8] = tested on: Lolium; assay: Pre-emergence Test/Greenhouse; format: in vivo; details: after three weeks, 0%=no effect, 100%=total destruction
Description: as §1, §2, §3, §7, §8, §6

[9] = tested on: Matricaria; assay: Pre-emergence Test/Greenhouse; format: in vivo; details: after three weeks, 0%=no effect, 100%=total destruction
Description: as §1, §2, §3, §7, §8, §6

[10] = tested on: Barley; assay: Pre-emergence Test/Greenhouse; format: in vivo; details: 4 g of ai./ha, after three weeks, 0%=no effect, 100%=total destruction
Description: as §1, §2, §3, §7, §8, §6

[11] = tested on: Amaranthus; assay: Pre-emergence Test/Greenhouse; format: in vivo; details: 504 h, after three weeks, 0%=no effect, 100%=total destruction, read-out: degree of damage, Amaranthus; for pest or weed control at 125 g/ha: 125 g of ai./ha; for pest or weed control at 60 g/ha: 60 g of ai./ha
Description: as §1, §2, §3, §7, §8, §6

[12] = tested on: Alopecurus; assay: Pre-emergence Test/Greenhouse; format: in vivo; details: 4 g of ai./ha, after three weeks, 0%=no effect, 100%=total destruction
Description: as §1, §2, §3, §7, §8, §6

[13] = tested on: Veronica; assay: Pre-emergence Test/Greenhouse; format: in vivo; details: 4 g of ai./ha, after three weeks, 0%=no effect, 100%=total destruction
Description: as §1, §2, §3, §7, §8, §6

[14] = tested on: Wheat; assay: Pre-emergence Test/Greenhouse; format: in vivo; details: after three weeks, 0%=no effect, 100%=total destruction
Description: as §1, §2, §3, §7, §8, §6

[15] = tested on: Chenopodium; assay: Pre-emergence Test/Greenhouse; format: in vivo; details: after three weeks, 0%=no effect, 100%=total destruction
Description: as §1, §2, §3, §7, §8, §6

[16] = tested on: Sinapis; assay: Post-emergence Test/Greenhouse; format: in vivo; details: after three weeks, 0%=no effect, 100%=total destruction
Description: as §1, §2, §3, §4, §5, §6

[17] = tested on: Alopecurus; assay: Post-emergence Test/Greenhouse; format: in vivo; details: after three weeks, 0%=no effect, 100%=total destruction
Description: as §1, §2, §3, §4, §5, §6

[18] = tested on: Sinapis; assay: Pre-emergence Test/Greenhouse; format: in vivo; details: after three weeks, 0%=no effect, 100%=total destruction
Description: as §1, §2, §3, §7, §8, §6

[19] = tested on: Avena fatua; assay: Pre-emergence Test/Greenhouse; format: in vivo; details: 125 g of ai./ha, after three weeks, 0%=no effect, 100%=total destruction
Description: as §1, §2, §3, §7, §8, §6

[20] = tested on: Galium; assay: Pre-emergence Test/Greenhouse; format: in vivo; details: after three weeks, 0%=no effect, 100%=total destruction
Description: as §1, §2, §3, §7, §8, §6

[21] = tested on: Echinochloa; assay: Pre-emergence Test/Greenhouse; format: in vivo; details: 60 g of ai./ha, after three weeks, 0%=no effect, 100%=total destruction
Description: as §1, §2, §3, §7, §8, §6

[22] = tested on: Setaria; assay: Pre-emergence Test/Greenhouse; format: in vivo; details: 60 g of ai./ha, after three weeks, 0%=no effect, 100%=total destruction
Description: as §1, §2, §3, §7, §8, §6

[23] = tested on: Cyperus; assay: Pre-emergence Test/Greenhouse; format: in vivo; details: 60 g of ai./ha, after three weeks, 0%=no effect, 100%=total destruction
Description: as §1, §2, §3, §7, §8, §6

[24] = tested on: Setaria; assay: Post-emergence Test/Greenhouse; format: in vivo; details: 60 g of ai./ha, after three weeks, 0%=no effect, 100%=total destruction
Description: as §1, §2, §3, §4, §5, §6

[25] = tested on: Abutilon; assay: Pre-emergence Test/Greenhouse; format: in vivo; details: 60 g of ai./ha, after three weeks, 0%=no effect, 100%=total destruction
Description: as §1, §2, §3, §7, §8, §6

Compound	activity against weeds [1]	degree of damage, Abutilon [3] [%]	pest or weed control at 60 g/ha [5] [%]	activity against weeds [7]	melting point [°C]	degree of damage, Sinapis ([16]; 60 g of ai./ha) [%]	pest or weed control at 60 g/ha [11] [%]	degree of damage, Sinapis ([18]; 60 g of ai./ha) [%]	other results
COc1nc(C)nc(NC(=O)NS(=O)(=O)c2c(C)csc2C)n1 [Example 1, N-(4-methoxy-6-methyl-1,3,5-triazin-2-yl)-N′-(2,4-dimethyl-thien-3-yl-sulplhonyl)-urea]	strong activity	95	95	very strong activity	189				degree of damage, Xanthium [2]: 100%; degree of damage, Matricaria [4]: 95%; degree of damage, Chenopodium [6]: 100%; degree of damage, Lolium ([8]; 4 g of ai./ha): 100%; degree of damage, Matricaria ([9]; 4 g of ai./ha): 100%; degree of damage, Barley [10]: 0%; pest or weed control at 4 g/ha ([11]; 4 g of ai./ha): 100%; degree of damage, Alopecurus [12]: 100%; degree of damage, Veronica [13]: 100%; degree of damage, Wheat ([14]; 4 g of ai./ha): 0%; degree of damage, Chenopodium ([15]; 4 g of ai./ha): 100%
Cc1csc(C)c1S(=O)(=O)NC(=O)Nc1nc(OCC(F)(F)F)nc(N(C)C)n1 [Example 6]	strong activity			very strong activity	195				degree of damage, Sinapis ([16]; 125 g of ai./ha): 100%; pest or weed control at 125 g/ha ([5]; 125 g of ai./ha): 80%; degree of damage, Alopecurus ([17]; 125 g of ai./ha): 100%; degree of damage, Sinapis ([18]; 125 g of ai./ha): 90%; pest or weed control at 125 g/ha [11]: 90%; degree of damage, Avena fatua [19]: 80%; degree of damage, Galium ([20]; 125 g of ai./ha): 100%
CCc1nc(NC(=O)NS(=O)(=O)c2c(C)csc2C)nc(OC)n1 [Example 13]	strong activity	90	100		161	95			
COc1cc(OC)nc(NC(=O)NS(=O)(=O)c2c(C)csc2C)n1 [Example 7]	strong activity	95	95	very strong activity	198				degree of damage, Xanthium [2]: 95%; degree of damage, Matricaria [4]: 95%; degree of damage, Chenopodium [6]: 95%; degree of damage, Lolium ([8]; 60 g of ai./ha): 95%; degree of damage, Matricaria ([9]; 60 g of ai./ha): 95%; degree of damage, Echinochloa [21]: 95%; degree of damage, Wheat ([14]; 60 g of ai./ha): 10%; degree of damage, Chenopodium ([15]; 60 g of ai./ha): 90%
COc1nc(NC(=O)NS(=O)(=O)c2c(C)csc2C)nc(C2CC2)n1 [Example 10]				very strong activity	180		80		degree of damage, Setaria [22]: 80%; degree of damage, Galium ([20]; 60 g of ai./ha): 100%
Cc1cc(C)nc(NC(=O)NS(=O)(=O)c2c(C)csc2C)n1 [Example 14]	strong activity		100	very strong activity	240	100	90	90	degree of damage, Alopecurus ([17]; 60 g of ai./ha): 80%; degree of damage, Cyperus [23]: 100%
COc1cc(C)nc(NC(=O)NS(=O)(=O)c2c(C)csc2C)n1 [Example 15]	strong activity	90	100	very strong activity	140	100	90	100	degree of damage, Setaria [24]: 90%; degree of damage, Abutilon [25]: 100%
Cc1csc(C)c1S(=O)(=O)NC(=O)Nc1nc(Oc2ccccc2)nc(N(C)C)n1 [Example 8]				very strong activity	173				degree of damage, Sinapis ([18]; 125 g of ai./ha): 80%; pest or weed control at 125 g/ha [11]: 80%; degree of damage, Avena fatua [19]: 80%; degree of damage, Galium ([20]; 125 g of ai./ha): 90%
COc1cc(Cl)nc(NC(=O)NS(=O)(=O)c2c(C)csc2C)n1 [Example 16]	strong activity		100	very strong activity	219	95	95	95	degree of damage, Cyperus [23]: 80%
CSc1nc(C)nc(NC(=O)NS(=O)(=O)c2c(C)csc2C)n1 [Example 11]	strong activity		100		220	100			
COc1nc(NC(=O)NS(=O)(=O)c2c(C)csc2C)nc(OC)n1 [Example 9]	strong activity	80	100	very strong activity	168	95	90	90	degree of damage, Abutilon [25]: 90%
